Where a name gives a salt, the structure may show the parent alone. Each block holds one compound with its values, some of them ahead of it. No end group written: not given here.
What was measured:
Assay type in all cases: cell-based, human
[1] = test system: histamine-evoked Ca^2+ signals in hBASMCs; assay: Histamine-evoked Ca2+ signals in populations of fluo-4-loaded hBASMCs; conditions: for effect on the sensitivity to histamine: trans Ned-19 1 μM or ryanodine 50 μM, 5 min, HBSS
Experimental: (§1) Two methods were used to measure [Ca^2+]i in populations of hBASMCs. For measurements using a FlexStation III plate-reader (Molecular Devices, Sunnyvale, CA, USA), hBASMCs were seeded into 96-well plates (10^4 cells per well). After about 4 days, when the cells were confluent, the medium was replaced with SMGM-2 without serum or growth factor supplements, and the cells were used after a further 24 h. This period in serum-free medium increased by about 2-fold the amplitude of the increases in [Ca^2+]i evoked by histamine (results not shown). Cells were washed with HEPES-buffered saline (HBS: 135 mM NaCl, 5.9 mM KCl, 1.2 mM MgCl2, 1.5 mM CaCl2, 11.6 mM HEPES, 11.5 mM D-glucose, pH 7.3), and loaded with fluo-4 by incubation with fluo-4-AM (2 μM) in HBS (100 μL per well) containing pluronic F127 (0.02%, v/v) and probenecid (2.5 mM). After 1 h at 20 °C, the medium was replaced with HBS (100 μL per well) containing probenecid (2.5 mM). After a further incubation at 20 °C for 1 h, the medium was replaced with HBS (60–80 μL per well) or nominally Ca^2+-free HBS, and the cells were used immediately for experiments at 20 °C. In some experiments, BAPTA (2.5 mM) was added to HBS during the recording; this reduced the free [Ca^2+] of the HBS to ∼120 nM without affecting the pH. Drug additions (20 μL at 4 or 5 times the final concentration) were added automatically. Fluorescence from fluo-4 (excitation 485 nm, emission 525 nm) was recorded at 1.44-s intervals using Softmax Pro 5.4 (Molecular Devices). Fluorescence was calibrated to [Ca^2+]i from: [Ca^2+]i=KDCa×(F−Fmin/Fmax−F) where, KDCa is the equilibrium dissociation constant of fluo-4 for Ca^2+ (345 nM), F is the recorded fluorescence, and Fmin and Fmax are the fluorescence values recorded after addition of triton-X-100 (0.1%, v/v) with either BAPTA (10 mM, Fmin) or CaCl2 (10 mM, Fmax). Although treatment with triton-X-100 releases fluo-4 from cells into the medium, the fluo-4 fluorescence is captured with the same efficiency whether it is trapped within cells or dispersed within the small volume of the wells (unpublished observations). Fmax was determined for each well at the end of an experiment, and the average value was used for each column of 8 wells. Fmin was determined from parallel wells on each plate.
(§2) For measurements of [Ca^2+]i using an FDSS 7000 FLIPR (Hamamatsu), hBASMCs were seeded into 384-well plates (8000 cells per well) in 20 μL of SMGM-2 containing 5% serum. After 24 h, the medium was replaced with 15 μL of serum-free SMGM-2, and after a further 6 h the cells were loaded with Ca^2+ indicator by addition of FLIPR calcium 4 assay kit (Molecular Devices) supplemented with probenecid (2.5 mM). The exact composition of this ‘no-wash’ indicator kit is not disclosed by the manufacturer, but it contains fluo-4-AM and components that reduce background fluorescence. The manufacture’s stock solution was diluted 10-fold into HBSS containing BSA (0.1%, w/v) and HEPES (20 mM); 5 μL of this solution was then added to each well (containing 15 μL of serum-free SMGM-2). After 2 h at 37 °C in humidified air containing 5% CO2, the plate was used for experiments at 20 °C. Most additions (5 μL) were prepared in HBSS supplemented with HEPES (20 mM) and BSA (0.1%, w/v). For more prolonged incubations, drugs were diluted in the initial loading medium (to avoid changes in dye-loading during the ‘no wash’ protocol). Fluorescence signals (excitation at 480 nm, emission at 540 nm) were calibrated to [Ca^2+]i after measurement of Fmin and Fmax uniquely for each well, using a KDCa = 345 nM.
(§3) All concentration-effect relationships were determined by addition of different drug concentrations to individual wells in the same multi-well plate, rather than by sequential additions to the same well. […]

[2] = test system: Ca^2+ signals evoked by histamine, bradykinin or carbachol in hBASMCs; assay: GPCR-evoked Ca2+ signals (histamine, bradykinin or carbachol, stated together) in hBASMCs; conditions: ryanodine 50 μM or trans Ned-19 1 μM, 5 min; HBSS
Experimental: as §1, with “This period in serum-free medium increased by about 2-fold the amplitude of the increases in [Ca^2+]i evoked by histamine (results not shown).” left out, “In some experiments, BAPTA (2.5 mM) was added to HBS during the recording; this reduced the free [Ca^2+] of the HBS to ∼120 nM without affecting the pH.” left out, “Although treatment with triton-X-100 releases fluo-4 from cells into the medium, the fluo-4 fluorescence is captured with the same efficiency whether it is trapped within cells or dispersed within the small volume of the wells (unpublished observations).” left out
(§4) For measurements of [Ca^2+]i using an FDSS 7000 FLIPR (Hamamatsu), hBASMCs were seeded into 384-well plates (8000 cells per well) in 20 μL of SMGM-2 containing 5% serum. […] The exact composition of this ‘no-wash’ indicator kit is not disclosed by the manufacturer, but it contains fluo-4-AM and components that reduce background fluorescence. […]

hBASMCs = assay: Increase in [Ca2+]i evoked directly by stimuli in fluo-4-loaded hBASMCs; conditions: for increase in [Ca2+]i evoked by the substance itself: hBASMCs from donors 1-3, PGE2 and sulprostone in Ca2+-free HBS; for effect of removal of extracellular Ca2+ on the peak increase in [Ca2+]i evoked by the stimulus: HBS vs Ca2+-free HBS (2.5 mM BAPTA added 37 s before the stimulus)
Experimental: as §1, §2, §3

[3] = test system: intracellular cAMP in hBASMCs; assay: Intracellular cAMP in hBASMCs by [3H]-adenine labeling; conditions: 5 min in HBS, TCS2510 1 μM; for effect on intracellular cAMP: PGE2 10 μM, butaprost 10 μM, [3H]-adenine labeling
Experimental: hBASMCs in 24-well plates (50,000 cells per well) were grown to confluence. The medium was then replaced with serum-free SMGM-2, and after 24 h this was supplemented with [^3H]-adenine (1 μCi per well, 18.4 Ci·mmol^−1). After 2 h at 37 °C in humidified air with 5% CO2, the medium was removed, and the cells were washed twice with HBS. The cells were stimulated at 20 °C in HBS. Incubations were terminated by removal of the medium, addition of ice-cold trichloroacetic acid (5%, 1 mL) and rapid freezing. This protocol ensured that only intracellular [^3H]-cAMP was detected. [^3H]-adenine nucleotides were separated by column chromatography, and the activity was determined by liquid scintillation counting using Ultra-gold scintillant. Results are presented as [^3H]-cAMP activity as a percentage of the sum of the activities of the fractions containing [^3H]-cAMP, [^3H]-ATP, [^3H]-ADP and [^3H]-AMP; henceforth, reported as [^3H]-cAMP (%).

[4] = test system: bradykinin-evoked Ca^2+ signals in hBASMCs; assay: Bradykinin-evoked Ca2+ signals in populations of fluo-4-loaded hBASMCs; conditions: Homo sapiens; bradykinin 1 nM; pre-incubation 30 min; n = 3; read-out: pIC50 for inhibition of the Ca2+ signals evoked by bradykinin (converted)
Experimental: as §1, with “This period in serum-free medium increased by about 2-fold the amplitude of the increases in [Ca^2+]i evoked by histamine (results not shown).” left out, “In some experiments, BAPTA (2.5 mM) was added to HBS during the recording; this reduced the free [Ca^2+] of the HBS to ∼120 nM without affecting the pH.” left out, “Although treatment with triton-X-100 releases fluo-4 from cells into the medium, the fluo-4 fluorescence is captured with the same efficiency whether it is trapped within cells or dispersed within the small volume of the wells (unpublished observations).” left out
as §4

[5] = test system: carbachol-evoked Ca^2+ signals in hBASMCs; assay: Carbachol-evoked Ca2+ signals in populations of fluo-4-loaded hBASMCs; conditions: Homo sapiens; carbachol 10 μM; pre-incubation 30 min; n = 3; read-out: pIC50 for inhibition of the Ca2+ signals evoked by carbachol (converted)
Experimental: as §1, with “This period in serum-free medium increased by about 2-fold the amplitude of the increases in [Ca^2+]i evoked by histamine (results not shown).” left out, “In some experiments, BAPTA (2.5 mM) was added to HBS during the recording; this reduced the free [Ca^2+] of the HBS to ∼120 nM without affecting the pH.” left out, “Although treatment with triton-X-100 releases fluo-4 from cells into the medium, the fluo-4 fluorescence is captured with the same efficiency whether it is trapped within cells or dispersed within the small volume of the wells (unpublished observations).” left out
as §4

Compound: COc1ccc([C@H]2N[C@H](C(=O)O)Cc3c2[nH]c2ccccc32)cc1CN1CCN(c2ccccc2F)CC1 (relative stereo) [trans Ned-19, trans-Ned-19]
effect on the sensitivity to histamine [1]: slightly reduced
whether the inhibitor substantially affected the Ca2+ signals evoked by histamine, bradykinin or carbachol [2]: Neither

Compound: CCCCC[C@H](O)/C=C/[C@H]1[C@H](O)CC(=O)[C@@H]1C/C=C\CCCC(=O)O [PGE2, prostaglandin E2]
increase in [Ca2+]i evoked by the substance itself (hBASMCs): directly evoked a significant increase in [Ca^2+]i
effect on intracellular cAMP [3]: stimulated cAMP accumulation

Compound: O=C1CC[C@H](C=C[C@@H](O)Cc2ccccc2)N1CCCCCCc1nn[nH]n1 [TCS2510, (5R)-5-[(3S)-3-hydroxy-4-phenyl-1-buten-1-yl]-1-[6-(2H-tetrazol-5-yl)hexyl]-2-pyrrolidinone]
effect on histamine-evoked Ca2+ signals ([1]; pre-treatment: 8-Br-cGMP, IBMX 20 min, forskolin 10 μM, NKH477 10 μM, butaprost 10 μM, TCS2510 1 μM 5 min): inhibited the Ca^2+ signals evoked by histamine
increase in [Ca2+]i evoked by the substance itself (hBASMCs): Neither butaprost nor TCS2510 evoked an increase in [Ca^2+]i
effect on intracellular cAMP [3]: stimulated formation of cAMP
production of cAMP at maximal concentration compared with forskolin, NKH477, isoproterenol or butaprost ([3]; equally effective in inhibiting histamine-evoked Ca2+ signals): far less

IC50 [4]: 33.9 µM
IC50 [5]: 39.8 µM
IC50 ([1]; Homo sapiens, histamine 10 μM, pre-incubation 30 min, n = 3, read-out: pIC50 for inhibition of the Ca2+ signals evoked by histamine (converted)): 22.9 µM
Compound: CCCCCCCCCCCCCCCCCCOCC(COP(=O)([O-])OCC[N+](C)(C)C)OC (centres unmarked) [edelfosine]

EC50 (hBASMCs; Homo sapiens, histamine alone, HBSS, n = 7, read-out: sensitivity to histamine (pEC50) (converted)): 1.05 µM
Compound: NCCc1c[nH]cn1 [histamine, Histamine dihydrochloride]
effect of removal of extracellular Ca2+ on the peak increase in [Ca2+]i evoked by the stimulus (hBASMCs): unaffected
increase in [Ca2+]i evoked by the substance itself (hBASMCs): Cells from all three donors responded
maximal amplitude of the peak increase in [Ca2+]i evoked by histamine (hBASMCs; histamine alone, HBSS, n = 7): 242 ± 15 nM

Compound: CC(C)[C@@]1(O)[C@@H](OC(=O)c2ccc[nH]2)[C@@]2(O)[C@@]3(C)C[C@]4(O)O[C@@]5([C@H](O)[C@@H](C)CC[C@]35O)[C@@]2(O)[C@@]14C [ryanodine]
effect on the sensitivity to histamine [1]: slightly reduced
whether the inhibitor substantially affected the Ca2+ signals evoked by histamine, bradykinin or carbachol [2]: Neither

Compound: CS(=O)(=O)NC(=O)CCC/C=C\C[C@H]1C(=O)C[C@@H](O)[C@@H]1/C=C/[C@@H](O)COc1ccccc1 [sulprostone, Sulprostone]
increase in [Ca2+]i evoked by the substance itself (hBASMCs): also evoked an increase in [Ca^2+]i

Compound: bradykinin acetate (RPPGFSPFR; also: acetate salt; UniProt P01042 381-389, looked up)
effect of removal of extracellular Ca2+ on the peak increase in [Ca2+]i evoked by the stimulus (hBASMCs): unaffected
increase in [Ca2+]i evoked by the substance itself (hBASMCs): Cells from all three donors responded

— PMC5893132, “Selective inhibition of histamine-evoked Ca^2+ signals by compartmentalized cAMP in human bronchial airway smooth muscle cells” (Cell Calcium, 2018)
